According to patent US10813891B2, “Method of inhibiting chronification of pain” (priority 2011, dated 2020):

How the values were obtained:
Format in all cases: in vivo, rat
CCI-ION rats = system: CCI-ION rats
Method: (§1) Male Sprague-Dawley rats (Charles River Laboratories, L'Arbresle, France), weighing 150-200 g on arrival, were used. Animals were maintained under controlled environmental conditions (22±1° C., 60% relative humidity, 12 h/12 h light/dark cycle, food and water ad libitum) starting from reception in the laboratory, for at least 1 week before any intervention or treatment and thereafter, until euthanasia.
Rats were anaesthetized with sodium pentobarbital (50 mg/kg i.p.). Unilateral CCI-ION was performed under direct visual control using a Zeiss microscope (10-25×). Briefly, the head was fixed in a Horsley-Clarke stereotaxic frame and a midline scalp incision was made, exposing skull and nasal bone. The edge of the orbit, formed by the maxillary, frontal, lacrimal, and zygomatic bones, was dissected free. The orbital contents were then gently deflected to give access to the infraorbital nerve which was dissected free at its most rostral extent in the orbital cavity, just caudal to the infraorbital foramen. Only 5 mm of the nerve could be freed, providing the space for placement of two chromic catgut (5-0) ligations tied loosely (with about 2 mm spacing) around it. […] Finally, scalp incision was closed using silk sutures (4-0). In sham-operated rats, the ION was exposed using the same procedure, but was not ligated.
(§2) Tapentadol (1, 3 and 10 mg/kg i.p.), reboxetine (10 mg/kg i.p.), morphine (1 and 3 mg/kg s.c.) or their vehicle (0.9% NaCl) were injected acutely 14 days after surgery, when allodynia/hyperalgesia reached a plateau in both CCI-SN and CCI-ION rats. Behavioral tests were performed at various times for up to 4 h after injection. In drug association procedure, reboxetine or saline was administered 15 min before morphine or saline.
(§3) Subchronic treatment consisted of twice daily injections of tapentadol (10 mg/kg, i.p. at 10:00 am and 6:00 pm) or saline for 4 days starting on the 15th day after nerve ligation in both CCI-ION and CCI-SN rats. Animals were further injected with tapentadol (10 mg/kg i.p.) or saline at 10:00 am the following day (19th day post-surgery), and assessment of allodynia with von Frey filament tests (see below) was made at various times up to 4 hours after this injection. All rats were killed by decapitation 4 hours after the last injection for real-time qRT-PCR determinations of specific mRNAs in ganglia and central tissues (see below).
Rats were placed individually in small (35×20×15 cm) plastic cages for a 2 h habituation period. Before any stimulation session, rats freely explored the observation cage and the testing environments for 2 h. Then mechanical sensitivity was determined with a graded series of […] von Frey filaments (Bioseb, Bordeaux, France). The filaments produced a bending force of 0.40, 0.60, 1.00, 2.00, 4.00, 6.00, 8.00, 10.00 and 12.00 g, respectively. The stimuli were applied within the ION territory (vibrissae pad) three times on the nerve-injured side and then on the contralateral side for a total of 6 applications of each filament per rat, always beginning with the filament producing the lowest force. The von Frey filaments were applied at least 3 seconds after the rat had returned to its initial resting state. For each session, the complete series of von Frey filaments was tested in increasing force order. […] The latter responses represented the highest scores in the rank-ordered response scoring system initially described by Vos et al. (1994). Under our own conditions, the mechanical response threshold was determined as the minimal force filament causing at least one among these responses to at least 2 out of the 3 applications in vibrissae territory. […] To avoid nonspecific responses, only these rats were included in the study.

[1] = system: mRNA encoding ATF3, IL-6 and BDNF; experiment: Real time qRT-PCR of mRNA in trigeminal ganglion and Sp5c of CCI-ION rats; conditions: subchronic 10 mg/kg i.p. twice daily; ipsilateral trigeminal ganglion and Sp5c area; 4 h after last injection
Method: as §3
Animals used for qRT-PCR procedure were decapitated immediately after performance of von Frey filament test four hours after the last injection of tapentadol or saline for subchronic treatment conditions (see above). […]
First-stranded cDNA synthesis (from 660 ng total RNA per 20 μl reaction mixture) was carried out using SuperScript™ III Reverse Transcriptase and random primers (250 ng per reaction), as recommended by the manufacturer (Invitrogen, Cergy Pontoise, France). […] Semi-quantitative determinations were made with reference to the reporter gene encoding glyceraldehyde 3-phosphate dehydrogenase (GaPDH; Rn99999916_sl). […] Specific mRNA levels were calculated after normalizing from GaDPH mRNA in each sample (Latrémolière et al., 2008). […]

CCI-SN rats = experiment: Paw pressure (Randall-Selitto) test in CCI-SN rats; conditions: 10 mg/kg i.p.
Method: as §1
Rats were anaesthetized as above and the common sciatic nerve was exposed. Using a dissection microscope (2× magnification), four chromic catgut (5-0) ligations were tied loosely with about 1 mm spacing, proximally to the sciatic trifurcation (Bennett and Xie, 1988). Finally, the skin and muscle were sewed using silk sutures (4-0). In sham-operated animals, the same surgery was performed, but the nerve was not ligated.
as §2

CC[C@@H](c1cccc(O)c1)[C@@H](C)CN(C)C [Tapentadol, (−)-(1R,2R)-3-(3-dimethylamino-1-ethyl-2-methyl-propyl)-phenol]
anti-allodynic effect after subchronic pretreatment vs saline pretreatment (CCI-ION rats; 10 mg/kg i.p. twice daily for four days, challenge 10 mg/kg i.p. day 19): had the same characteristics (amplitude, duration) | increase in pressure threshold value compared to saline-treated CCI-ION rats (CCI-ION rats; acute 1 mg/kg i.p., first 45 min): up to 6 fold | duration of statistically significant anti-allodynic effect (CCI-ION rats; acute 10 mg/kg i.p.): at least two hours | pressure threshold values higher than those determined prior to injection (CCI-ION rats; acute 10 mg/kg i.p., 30-60 min after injection): 15-20 fold | ATF3, IL-6 and BDNF mRNA levels [1]: had no significant effects | duration of increase in pressure threshold values (CCI-SN rats): at least 60 min | pressure threshold values to trigger vocalization, vs untreated healthy rats (CCI-SN rats; first 45 min after administration): +20% | pressure threshold values to cause hindpaw withdrawal (CCI-SN rats; first hour after treatment, vs intact healthy rats): did not significantly differ from those determined in intact healthy rats
